Results: patent US12600714B2, “Substituted pyrazinecarboxamide compounds for treating diseases related to EGFR mutation” (WIGEN BIOMEDICINE TECHNOLOGY (SHANGHAI) CO., LTD., priority 2020, dated 2026)

system: EGFR (del19/T790M/C797S); test: HTRF inhibitory activity assay against EGFR (del19/T790M/C797S) enzyme; format: biochemical
Procedure: Inhibitory Activity Assay of the Compounds Disclosed Herein Against EGFR (del19/T790M/C797S), EGFR (L858R/T790M/C797S) or EGFR (WT) Enzymes
The inhibitory effects of the compounds against EGFR (del19/T790M/C797S), EGFR (L858R/T790M/C797S) or EGFR (WT) enzyme activity was determined by using HTRF. The procedures are as follows:
The WT or mutant EGFR proteins were incubated with a serially diluted compounds at 28° C. for 10 min followed by addition of biotin-labeled general tyrosine kinase (TK) substrate and ATP. The mixture was incubated at room temperature for 40 min for reaction. After the termination of the reaction, an Eu3+-Cryptate-labeled antibody against TK and streptavidin-XL665 were added and the mixture was incubated at room temperature for 60 min. The luminescences at 615 nm and 665 nm were detected and the ratio of 665/615 was calculated to quantify the level of TK substrate phosphorylation. Inhibition % and IC50 of the compounds were calculated relative to the control group.

Structure (SMILES)	EGFR (del19/T790M/C797S) inhibition (%) (0.3 nM compound)
CC(C)Nc1nc(Nc2ccc(N3CCC(N4CCN(C)CC4)CC3)c(F)c2)c(C(N)=O)nc1-c1cc[nH]n1 [compound 622]	+++ (+++ indicates an inhibition greater than 50%.)
CN1CCN(C2CCN(c3ccc(Nc4nc(NC5CC6(CCOCC6)C5)c(-c5ccccn5)nc4C(N)=O)cc3)CC2)CC1 [compound 271]	++ (++ indicates an inhibition from 20% to 50%)
CN1CCN(C2CCN(c3ccc(Nc4nc(N[C@H]5CC[C@@H](O)CC5)c(-c5ccccc5)nc4C(N)=O)cc3)CC2)CC1 [compound 24]	++ (++ indicates an inhibition from 20% to 50%)
CN1CCN(C2CCN(c3ccc(Nc4nc(NC5CCOCC56CC6)c(-c5ccccn5)nc4C(N)=O)cc3)CC2)CC1 (stereo not drawn) [compound 255]	++ (++ indicates an inhibition from 20% to 50%)
CN1CCN(C2CCN(c3ccc(Nc4nc(NC5CCOCC5)c(-c5ccoc5)nc4C(N)=O)cc3)CC2)CC1 [compound 91]	++ (++ indicates an inhibition from 20% to 50%)
COc1cccc(-c2nc(C(N)=O)c(Nc3ccc(N4CCC(N5CCN(C)CC5)CC4)cc3)nc2NC2CCOCC2)c1 [compound 51]	+ (+ indicates an inhibition less than or equal to 20%)
CN1CCN(C2CCN(c3ccc(Nc4nc(NC5CCOCC5)c(C5=CCNCC5)nc4C(N)=O)cc3)CC2)CC1 [compound 109]	+ (+ indicates an inhibition less than or equal to 20%)
CN1CCN(C2CCN(c3ccc(Nc4nc(N[C@H]5C[C@H](O)C5)c(-c5cc[nH]n5)nc4C(N)=O)cc3)CC2)CC1 [compound 615]	+++ (+++ indicates an inhibition greater than 50%.)
CN1CCN(C2CCN(c3ccc(Nc4nc(Oc5ccccc5)c(-c5ccccc5)nc4C(N)=O)cc3)CC2)CC1 [compound 6]	+ (+ indicates an inhibition less than or equal to 20%)
CN1CCN(C2CCN(c3ccc(Nc4nc(NC5CCOC6(CC6)C5)c(-c5ccccn5)nc4C(N)=O)cc3)CC2)CC1 (stereo not drawn) [compound 263]	++ (++ indicates an inhibition from 20% to 50%)
CN1CCN(C2CCN(c3ccc(Nc4nc(N[C@@H]5CCOC5)c(-c5ccncc5)nc4C(N)=O)cc3)CC2)CC1 [compound 642]	+++ (+++ indicates an inhibition greater than 50%.)
CN1CCN(C2CCN(c3ccc(Nc4nc(NC5CCOCC5)c(-c5ccc(C#N)cc5)nc4C(N)=O)cc3)CC2)CC1 [compound 53]	+ (+ indicates an inhibition less than or equal to 20%)
CN1CCN(C2CCN(c3ccc(Nc4nc(NC5CCC(O)C5)c(-c5cc[nH]n5)nc4C(N)=O)cc3)CC2)CC1 (stereo not drawn) [compound 617]	++ (++ indicates an inhibition from 20% to 50%)
CN1CCN(C2CCN(c3ccc(Nc4nc(NC5CCOCC5)c(-c5cccc(O)c5)nc4C(N)=O)cc3)CC2)CC1 [compound 43]	+ (+ indicates an inhibition less than or equal to 20%)
Cc1cc(Nc2nc(NC3CC4(CCOCC4)C3)c(-c3ccncc3)nc2C(N)=O)ccc1N1CCC(N2CCN(C)CC2)CC1 [compound 379]	++ (++ indicates an inhibition from 20% to 50%)
CN1CCN(C2CCN(c3ccc(Nc4nc(NC5CCOCC5)c(-c5ccn(C)c(=O)c5)nc4C(N)=O)cc3)CC2)CC1 [compound 106]	+ (+ indicates an inhibition less than or equal to 20%)
CN1CCN(C2CCN(c3ccc(Nc4nc(NC5CCOCC5)c(-c5cc[nH]n5)nc4C(N)=O)cc3F)CC2)CC1 [compound 619]	++ (++ indicates an inhibition from 20% to 50%)
CN1CCN(C2CCN(c3ccc(Nc4nc(NC5CCCC5)c(-c5ccncc5)nc4C(N)=O)cc3)CC2)CC1 [compound 640]	+++ (+++ indicates an inhibition greater than 50%.)
